Source: patent US20090270435A1 (priority 2006, published 2009)
Where a name gives a salt, the structure may show the parent alone.

These molecules were tested against T1, ACC1 from rat liver (Rattus norvegicus, UniProt P11497) (assay: Direct inhibition of ACC1 activity (14C-bicarbonate incorporation)). Settings: ACC1 from rat liver.
T1 construct: The livers (for ACC1 preparation) or skeletal muscle tissue (for ACC2 preparation) are removed; from tissue; host or cells: liver of male CD rats (fasted, then fed a high sucrose diet)
Format: biochemical
Description: [1] Preparation of ACC1 and ACC2.
Male CD rats weighing 150-200 g are fasted for 2 days and then fed a high sucrose diet (AIN-76A rodent diet; Cat # D10001, Research Diets Inc., New Brunswick, N.J.), for 3 days at which time they are sacrificed by CO2 asphyxiation. The livers (for ACC1 preparation) or skeletal muscle tissue (for ACC2 preparation) are removed, rinsed in ice-cold phosphate-buffered saline (PBS), and homogenized in 5 volumes of homogenization buffer (50 mM potassium phosphate, pH 7.5, 10 mM EDTA, 10 mM 2-mercaptoethanol, 2 mM benzamidine, 0.2 mM phenylmethylsulfonylfluoride (PMSF), 5 mg/L each leupeptin, aprotinin, and antitrypsin) in a Waring® blender for 1 minute at 4° C. All subsequent operations are carried out at 4° C. The homogenate is made 3% with respect to polyethylene glycol (PEG) by the addition of 50% PEG solution and centrifuged at 20,000×g for 15 minutes. The resulting supernatant is adjusted to 5% PEG with the addition of 50% PEG solution and stirred for 5 minutes. The pellet (contains ACC activity) is collected by centrifugation at 20,000×g for 20 minutes, rinsed with Ice-cold doubly distilled water to remove excess PEG and re-suspended in one-fourth the original homogenate volume with homogenization buffer. Ammonium sulfate (200 g/liter) is slowly added with stirring. After 45 minutes the enzyme is collected by centrifugation for 30 minutes at 20,000×g, re-suspended in 10 ml of 50 mM HEPES, pH7.5, 0.1 mM DTT, 1.0 mM EDTA, and 10% glycerol and desalted on a Sephadex™ G-25 column (2.5 cm-x 50 cm) (Pharmacia, Piscataway N.J. now GE Healthcare) […] equilibrated with the same buffer. The desalted enzyme preparation is stored in aliquots at −70° C. Immediately prior to use, frozen ACC1 or ACC2 aliquots are thawed, diluted to 500 μg/ml in buffer containing 50 mM HEPES, pH7.5, 1.0 mM MgCl2, 10 mM tripotassium citrate, 2.0 mM dithiothreitol (DTT), and 0.75 mg/ml fatty acid-free bovine serum albumin (BSA) and pre-incubated at 37° C. for 30 minutes.
[2] Measurement of ACC inhibition. The procedures for measuring ACC1 inhibition and ACC2 inhibition are identical except for the source of the isozyme. For measurement of ACC activity and assessment of ACC inhibition, test compounds are dissolved in dimethylsulfoxide (DMSO) and 1 μL aliquots are placed in 0.5 ml polypropylene tubes. Control tubes contain 1 μL of DMSO alone. Tubes are incubated at 37° C. in a constant temperature water bath. […] The reaction is then initiated by the addition of 10 μL of preincubated ACC fraction prepared as described above. After 7 minutes the reaction is terminated by the addition of 50 μL of 6N HCl and a 150 μL aliquot of the reaction mixture is transferred to glass scintillation vials and evaporated to dryness at 90° C. for at least 1 hour. The dried vials are then cooled, 0.5 ml of water and 5.5 ml of Ready Safe liquid scintillation fluid (Beckman Coulter Inc., Fullerton, Calif.) are added, and the radioactivity is determined using a liquid scintillation counter. Tubes that received HCl before ACC served as blanks.
In the case of `O=C1CC2(CCN(C(=O)c3cccc4cn[nH]c34)CC2)Oc2ccccc21` [listing 1 of 2 here], the IC50 is reported as > 3000 nM.
`O=C1CC2(CCN(C(=O)c3cccc4cn[nH]c34)CC2)Oc2ccccc21` [listing 2 of 2 here] was tested, and the IC50 was 3540 nM.
“1′-1H-indol ylcarbonyl)-6,7-dimethylspiro[chromene-2,4′-piperidin]-4(3H)-one trifluoroacetic acid salt [Ex. L14]” gave an IC50 of 479 nM.
With “1′-[(7-bromo-1H-indazol-6-yl)carbonyl]-6-chlorospiro[chromene-2,4′-piperidin]-4(3H)-one [Ex. G5]” the IC50 was > 1000 nM.
With “5,7-dichloro-1′-(1H-indazol-7-ylcarbonyl)spiro[chromene-2,4′-piperidin]-4(3H)-one [Ex. H15]” the IC50 was 1480 nM.
“5,7-dichloro-1′-[(7-chloro-1H-indazol-5-yl)carbonyl]spiro[chromene-2,4′-piperidin]-4(3H)-one [Ex. B9]” showed an IC50 of 180 nM.
In the case of “6-chloro-1′-[(7-chloro-1H-indazol-5-yl)carbonyl]-7-fluorospiro[chromene-2,4′-piperidin]-4(3H)-one [Ex. B13]”, the IC50 is reported as 287 nM.
For “6-chloro-1′-[(7-chloro-1H-indazol-5-yl)carbonyl]spiro[chromene-2,4′-piperidin]-4(3H)-one [Ex. B8]”, the IC50 was 166 nM.
For `COc1cccc2c1C(=O)CC1(CCN(C(=O)c3cc(Cl)c4[nH]ncc4c3)CC1)O2` [B6, 1′-[(7-chloro-1H-indazol-5-yl)carbonyl]-5-methoxyspiro[chromene-2,4′-piperidin]-4(3H)-one], the IC50 was 109 nM.
Molecule `Cc1cc2c(cc1C)C(=O)CC1(CCN(C(=O)c3cc(C)c4[nH]ncc4c3)CC1)O2` [Ex. A2, 6,7-dimethyl-1′-[(7-methyl-1H-indazol-5-yl)carbonyl]spiro-[chromene-2,4′-piperidin]-4(3H)-one trifluoroacetic acid salt] has an IC50 of 30.1 nM.
Work on `CNC(=O)c1ccc2c(c1)C(=O)CC1(CCN(C(=O)c3cc(C)c4[nH]ncc4c3)CC1)O2` [Ex. A5, N-methyl-1′-[(7-methyl-1H-indazol-5-yl)carbonyl]-4-oxo-3,4-dihydrospiro[chromene-2,4′-piperidine]-6-carboxamide] yielded an IC50 of 29.5 nM.
Work on `COc1cc(Cl)c2c(c1)OC1(CCN(C(=O)c3cc(C)c4[nH]ncc4c3)CC1)CC2=O` [Ex. A6, 5-chloro-7-methoxy-1′-[(7-methyl-1H-indazol-5-yl)carbonyl]spiro[chromene-2,4′-piperidin]-4(3H)-one] yielded an IC50 of 31.9 nM.
Work on `Cc1cc2c(cc1Br)C(=O)CC1(CCN(C(=O)c3cc(C)c4[nH]ncc4c3)CC1)O2` [Ex. A8, 6-bromo-7-methyl-1′-[(7-methyl-1H-indazol-5-yl)carbonyl]spiro[chromene-2,4′-piperidin]-4(3H)-one] yielded an IC50 of 32.6 nM.
`Cc1cc(C(=O)N2CCC3(CC2)CC(=O)c2cc(C(N)=O)ccc2O3)cc2cn[nH]c12` [Ex. A10, 1′-[(7-methyl-1H-indazol-5-yl)carbonyl]-4-oxo-3,4-dihydrospiro[chromene-2,4′-piperidine]-6-carboxamide] was tested, and the IC50 was 38.2 nM.
`COC(=O)c1ccc2c(c1)C(=O)CC1(CCN(C(=O)c3cc(C)c4[nH]ncc4c3)CC1)O2` [Ex. A11, methyl 1-[(7-methyl-1H-indazol-5-yl)carbonyl]-4-oxo-3,4-dihydrospiro[chromene-2,4-piperidine]-6-carboxylate] was tested, and the IC50 was 40 nM.
For `Cc1cc(C(=O)N2CCC3(CC2)CC(=O)c2cc(Cl)c(Cl)cc2O3)cc2cn[nH]c12` [Ex. A14, 6,7-dichloro-1′-[(7-methyl-1H-indazol-5-yl)carbonyl]spiro[chromene-2,4′-piperidin]-4(3H)-one], the IC50 was 52 nM.
In the case of `Cc1ccc2c(c1)C(=O)CC1(CCN(C(=O)c3cc(C)c4[nH]ncc4c3)CC1)O2` [Ex. A15, 6-methyl-1′-[(7-methyl-1H-indazol-5-yl)carbonyl]spiro[chromene-2,4′-piperidin]-4(3H)-one], the IC50 is reported as 53.6 nM.
For `Cc1cc(C(=O)N2CCC3(CC2)CC(=O)c2ccc(Cl)cc2O3)cc2cn[nH]c12` [Ex. A17, 7-chloro-1′-[(7-methyl-1H-indazol-5-yl)carbonyl]spiro[chromene-2,4′-piperidin]-4(3H)-one], the IC50 was 70.5 nM.
With `Cc1cc2c(c(C)c1Cl)C(=O)CC1(CCN(C(=O)c3cc(C)c4[nH]ncc4c3)CC1)O2` [Ex. A18, 6-chloro-5,7-dimethyl-1′-[(7-methyl-1H-indazol-5-yl)carbonyl]spiro[chromene-2,4′-piperidin]-4(3H)-one] the IC50 was 72 nM.
With `COc1cc(Cl)cc2c1C(=O)CC1(CCN(C(=O)c3cc(C)c4[nH]ncc4c3)CC1)O2` [Ex. A19, 7-chloro-5-methoxy-1′-[(7-methyl-1H-indazol-5-yl)carbonyl]spiro[chromene-2,4′-piperidin]-4(3H)-one] the IC50 was 81.5 nM.
For `Cc1cc(C(=O)N2CCC3(CC2)CC(=O)c2cc(C(F)(F)F)ccc2O3)cc2cn[nH]c12` [Ex. A20, 1′-[(7-methyl-1H-indazol-5-yl)carbonyl]-6-(trifluoromethyl)spiro[chromene-2,4′-piperidin]-4(3H)-one], the IC50 was 96.6 nM.
`Cc1cc(C(=O)N2CCC3(CC2)CC(=O)c2cc(F)c(Cl)cc2O3)cc2cn[nH]c12` [Ex. A22, 7-chloro-6-fluoro-1′-[(7-methyl-1H-indazol-5-yl)carbonyl]spiro[chromene-2,4′-piperidin]-4(3H)-one] was tested, and the IC50 was 104 nM.
For `Cc1cc(C(=O)N2CCC3(CC2)CC(=O)c2cc(C(C)C)ccc2O3)cc2cn[nH]c12` [Ex. A23, 6-isopropyl-1′-[(7-methyl-1H-indazol-5-yl)carbonyl]spiro[chromene-2,4′-piperidin]-4(3H)-one], the IC50 was 109 nM.
In the case of `COc1ccc2c(c1)OC1(CCN(C(=O)c3cc(C)c4[nH]ncc4c3)CC1)CC2=O` [Ex. A24, 7-methoxy-1′-[(7-methyl-1H-indazol-5-yl)carbonyl]spiro[chromene-2,4′-piperidin]-4(3H)-one], the IC50 is reported as 122 nM.
For `COc1cccc2c1C(=O)CC1(CCN(C(=O)c3cc(C)c4[nH]ncc4c3)CC1)O2` [Ex. A25, 5-methoxy-1′-[(7-methyl-1H-indazol-5-yl)carbonyl]spiro[chromene-2,4′-piperidin]-4(3H)-one], the IC50 was 112 nM.
In the case of `Cc1cc(C(=O)N2CCC3(CC2)CC(=O)c2cc(Cl)ccc2O3)cc2cn[nH]c12` [Ex. A26, 6-chloro-1′-[(7-methyl-1H-indazol-5-yl)carbonyl]spiro[chromene-2,4′-piperidin]-4(3H)-one], the IC50 is reported as 113 nM.
For `Cc1cc(C(=O)N2CCC3(CC2)CC(=O)c2cc(C(=O)N(C)C)ccc2O3)cc2cn[nH]c12` [Ex. A27, N,N-dimethyl-1′-[(7-methyl-1H-indazol-5-yl)carbonyl]-4-oxo-3,4-dihydrospiro[chromene-2,4′-piperidine]-6-carboxamide], the IC50 was 125 nM.
For `COc1cc(C)c2c(c1)OC1(CCN(C(=O)c3cc(C)c4[nH]ncc4c3)CC1)CC2=O` [Ex. A28, 7-methoxy-5-methyl-1′-[(7-methyl-1H-indazol-5-yl)carbonyl]spiro[chromene-2,4′-piperidin]-4(3H)-one], the IC50 was 138 nM.
Molecule `Cc1cc(C)c2c(c1)OC1(CCN(C(=O)c3cc(C)c4[nH]ncc4c3)CC1)CC2=O` [Ex. A29, 5,7-dimethyl-1′-[(7-methyl-1H-indazol-5-yl)carbonyl]spiro[chromene-2,4′-piperidin]-4(3H)-one] has an IC50 of 146 nM.
`Cc1cc(C(=O)N2CCC3(CC2)CC(=O)c2c(Cl)cc(Cl)cc2O3)cc2cn[nH]c12` [Ex. A30, 5,7-dichloro-1′-[(7-methyl-1H-indazol-5-yl)carbonyl]spiro[chromene-2,4′-piperidin]-4(3H)-one] gave an IC50 of 209 nM.
`Cc1cc(C(=O)N2CCC3(CC2)CC(=O)c2cc(C#N)ccc2O3)cc2cn[nH]c12` [Ex. A31, 1′-[(7-methyl-1H-indazol-5-yl)carbonyl]-4-oxo-3,4-dihydrospiro[chromene-2,4-piperidine]+carbonitrile] gave an IC50 of 234 nM.
Molecule `Cc1cc(C(=O)N2CCC3(CC2)CC(=O)c2ccc(C#N)cc2O3)cc2cn[nH]c12` [Ex. A32, 1′-[(7-methyl-1H-indazol-5-yl)carbonyl]H-oxo-3,4-dihydrospiro[chromene-2,4′-piperidine]-7-carbonitrile] has an IC50 of 277 nM.
